In the supplement of paper PMC9013687:
± gives the standard deviation of the averaged measurements.

How the values were obtained:
Danio rerio embryo [1] = system: Danio rerio embryo
Procedure: (§1)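 Zebrafish embryos (UFZ-OBI strain) were exposed from 2 hpf for 48 h (2 dpf) or 96 h (4 dpf) at 28 °C; spontaneous tail coiling was scored at 25 hpf. Morphological features from automated image analysis (FishInspector), heart rate and locomotor response were fitted with drc models. Quantal endpoints were dichotomised at 2.5 SD from controls and fitted with a log-logistic model; heart rate, pigmentation and STC were normalised to the replicate control mean. Betamethasone was tested as betamethasone dipropionate, diflorasone as diflorasone diacetate.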

Danio rerio embryo [2] = details: exposure time: 4 dpf
Procedure: as §1

Danio rerio embryo [3] = assay: EC50 Curvature_Increase; details: exposure time: 2 dpf
Procedure: as §1

Danio rerio embryo [4] = assay: EC50 Body length_Decrease; details: exposure time: 2 dpf
Procedure: as §1

Danio rerio embryo [5] = assay: EC50 Bladder size_Decrease; details: exposure time: 4 dpf
Procedure: as §1

Danio rerio embryo [6] = assay: EC50 Pericard size_Increase; details: exposure time: 4 dpf
Procedure: as §1

Danio rerio embryo [7] = assay: EC50 Yolk sac size_Increase; details: exposure time: 4 dpf
Procedure: as §1

Danio rerio embryo [8] = assay: EC50 Eye-jaw distance_Decrease; details: exposure time: 4 dpf
Procedure: as §1

Danio rerio embryo [9] = assay: EC50 Otolith-eye distance_Decrease; details: exposure time: 4 dpf
Procedure: as §1

Danio rerio embryo [10] = assay: EC10 LMR dark; higher = less potent; details: exposure time: 4 dpf
Procedure: as §1

Danio rerio embryo [11] = assay: EC20 LMR dark; higher = less potent; details: exposure time: 4 dpf
Procedure: as §1

Danio rerio embryo [12] = assay: EC20 Any effect; higher = less potent; details: exposure time: 4 dpf
Procedure: as §1

Danio rerio embryo [13] = assay: EC10 Any effect; higher = less potent; details: exposure time: 4 dpf
Procedure: as §1

Danio rerio embryo [14] = assay: EC10 Curvature_Increase; higher = less potent; details: exposure time: 2 dpf
Procedure: as §1

Danio rerio embryo [15] = assay: EC20 Curvature_Increase; higher = less potent; details: exposure time: 2 dpf
Procedure: as §1

Danio rerio embryo [16] = assay: EC10 Head size_Decrease; higher = less potent; details: exposure time: 4 dpf
Procedure: as §1

Danio rerio embryo [17] = assay: EC20 Body length_Decrease; higher = less potent; details: exposure time: 2 dpf
Procedure: as §1

Danio rerio embryo [18] = assay: EC10 Body length_Decrease; higher = less potent; details: exposure time: 2 dpf
Procedure: as §1

Danio rerio embryo [19] = assay: EC10 Bladder size_Decrease; higher = less potent; details: exposure time: 4 dpf
Procedure: as §1

Danio rerio embryo [20] = assay: EC20 Bladder size_Decrease; higher = less potent; details: exposure time: 4 dpf
Procedure: as §1

Danio rerio embryo [21] = assay: EC20 Yolk sac size_Increase; higher = less potent; details: exposure time: 4 dpf
Procedure: as §1

Danio rerio embryo [22] = assay: EC20 Pericard size_Increase; higher = less potent; details: exposure time: 4 dpf
Procedure: as §1

Danio rerio embryo [23] = assay: EC10 Yolk sac size_Increase; higher = less potent; details: exposure time: 4 dpf
Procedure: as §1

Danio rerio embryo [24] = assay: EC10 Pericard size_Increase; higher = less potent; details: exposure time: 4 dpf
Procedure: as §1

Danio rerio embryo [25] = assay: EC20 Eye-jaw distance_Decrease; higher = less potent; details: exposure time: 4 dpf
Procedure: as §1

Danio rerio embryo [26] = assay: EC10 Eye-jaw distance_Decrease; higher = less potent; details: exposure time: 4 dpf
Procedure: as §1

Danio rerio embryo [27] = assay: EC20 Otolith-eye distance_Decrease; higher = less potent; details: exposure time: 4 dpf
Procedure: as §1

Danio rerio embryo [28] = assay: EC10 Otolith-eye distance_Decrease; higher = less potent; details: exposure time: 4 dpf
Procedure: as §1

Danio rerio embryo [29] = assay: spontaneous tail coiling frequency (coils/min/embryo); higher = more spontaneous movement; details: 25 hpf
Procedure: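 Spontaneous tail coilings of zebrafish embryos exposed from 2 hpf were recorded at 24-25 hpf in 1-min videos and detected by a KNIME workflow from grey-value variance. Betamethasone was tested as the dipropionate, diflorasone as the diacetate.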

CCCNCC(O)COc1ccccc1C(=O)CCc1ccccc1 (centres undefined) [Propafenone]
Details | EC50 Any effect [µM] | EC50 LMR ligth increase [µM] | EC50 Pigmentation increase [µM] | EC50 STC decrease [µM] | spontaneous tail coiling frequency
Danio rerio embryo [1], exposure time: 4 dpf | 20.6 | 19.6 | 34.7 | – | –
Danio rerio embryo [1], exposure time: 25 h | – | – | – | 47.5 | –
Danio rerio embryo [29], 8.8 µM | – | – | – | – | 1.68
Danio rerio embryo [29], 13.2 µM | – | – | – | – | 1.86
Danio rerio embryo [29], 19.8 µM | – | – | – | – | 1.81 ± 0.55
Danio rerio embryo [29], 29.6 µM | – | – | – | – | 0.98
Danio rerio embryo [29], 44.5 µM | – | – | – | – | 1.23 ± 1.2
Danio rerio embryo [29], 66.7 µM | – | – | – | – | 1
Danio rerio embryo [29], 100 µM | – | – | – | – | 0.422 ± 0.49
Danio rerio embryo [29], 142.9 µM | – | – | – | – | 0.49

Details | EC10 Any effect [µM] | EC10 Bladder size Decrease [µM] | EC10 Body length Decrease [µM] | EC10 Curvature Increase [µM] | EC10 Eye-jaw distance Decrease [µM] | EC10 Head size Decrease [µM] | EC10 LMR dark [µM] | EC10 Otolith-eye distance Decrease [µM] | EC10 Pericard size Increase [µM] | EC10 Yolk sac size Increase [µM] | EC20 Any effect [µM] | EC20 Bladder size Decrease [µM] | EC20 Body length Decrease [µM] | EC20 Curvature Increase [µM] | EC20 Eye-jaw distance Decrease [µM] | EC20 LMR dark [µM] | EC20 Otolith-eye distance Decrease [µM] | EC20 Pericard size Increase [µM] | EC20 Yolk sac size Increase [µM] | EC50 Bladder size Decrease [µM] | EC50 Body length Decrease [µM] | EC50 Curvature Increase [µM] | EC50 Eye-jaw distance Decrease [µM] | EC50 LMR dark [µM] | EC50 Otolith-eye distance Decrease [µM] | EC50 Pericard size Increase [µM] | EC50 Yolk sac size Increase [µM]
Danio rerio embryo [2] | – | – | – | – | – | – | – | – | – | – | – | – | – | – | – | – | – | – | – | – | – | – | – | 11.2 | – | – | –
Danio rerio embryo [3] | – | – | – | – | – | – | – | – | – | – | – | – | – | – | – | – | – | – | – | – | – | 131 | – | – | – | – | –
Danio rerio embryo [4] | – | – | – | – | – | – | – | – | – | – | – | – | – | – | – | – | – | – | – | – | 79.5 | – | – | – | – | – | –
Danio rerio embryo [5] | – | – | – | – | – | – | – | – | – | – | – | – | – | – | – | – | – | – | – | 7.8 | – | – | – | – | – | – | –
Danio rerio embryo [6] | – | – | – | – | – | – | – | – | – | – | – | – | – | – | – | – | – | – | – | – | – | – | – | – | – | 20.6 | –
Danio rerio embryo [7] | – | – | – | – | – | – | – | – | – | – | – | – | – | – | – | – | – | – | – | – | – | – | – | – | – | – | 20.5
Danio rerio embryo [8] | – | – | – | – | – | – | – | – | – | – | – | – | – | – | – | – | – | – | – | – | – | – | 20.6 | – | – | – | –
Danio rerio embryo [9] | – | – | – | – | – | – | – | – | – | – | – | – | – | – | – | – | – | – | – | – | – | – | – | – | 35.5 | – | –
Danio rerio embryo [10] | – | – | – | – | – | – | 2.43 | – | – | – | – | – | – | – | – | – | – | – | – | – | – | – | – | – | – | – | –
Danio rerio embryo [11] | – | – | – | – | – | – | – | – | – | – | – | – | – | – | – | 4.28 | – | – | – | – | – | – | – | – | – | – | –
Danio rerio embryo [12] | – | – | – | – | – | – | – | – | – | – | 18.9 | – | – | – | – | – | – | – | – | – | – | – | – | – | – | – | –
Danio rerio embryo [13] | 17.9 | – | – | – | – | – | – | – | – | – | – | – | – | – | – | – | – | – | – | – | – | – | – | – | – | – | –
Danio rerio embryo [14] | – | – | – | 27.6 | – | – | – | – | – | – | – | – | – | – | – | – | – | – | – | – | – | – | – | – | – | – | –
Danio rerio embryo [15] | – | – | – | – | – | – | – | – | – | – | – | – | – | 49 | – | – | – | – | – | – | – | – | – | – | – | – | –
Danio rerio embryo [16] | – | – | – | – | – | 13.4 | – | – | – | – | – | – | – | – | – | – | – | – | – | – | – | – | – | – | – | – | –
Danio rerio embryo [17] | – | – | – | – | – | – | – | – | – | – | – | – | 34.1 | – | – | – | – | – | – | – | – | – | – | – | – | – | –
Danio rerio embryo [18] | – | – | 20.8 | – | – | – | – | – | – | – | – | – | – | – | – | – | – | – | – | – | – | – | – | – | – | – | –
Danio rerio embryo [19] | – | 6.71 | – | – | – | – | – | – | – | – | – | – | – | – | – | – | – | – | – | – | – | – | – | – | – | – | –
Danio rerio embryo [20] | – | – | – | – | – | – | – | – | – | – | – | 7.09 | – | – | – | – | – | – | – | – | – | – | – | – | – | – | –
Danio rerio embryo [21] | – | – | – | – | – | – | – | – | – | – | – | – | – | – | – | – | – | – | 18.4 | – | – | – | – | – | – | – | –
Danio rerio embryo [22] | – | – | – | – | – | – | – | – | – | – | – | – | – | – | – | – | – | 18.8 | – | – | – | – | – | – | – | – | –
Danio rerio embryo [23] | – | – | – | – | – | – | – | – | – | 17.3 | – | – | – | – | – | – | – | – | – | – | – | – | – | – | – | – | –
Danio rerio embryo [24] | – | – | – | – | – | – | – | – | 17.8 | – | – | – | – | – | – | – | – | – | – | – | – | – | – | – | – | – | –
Danio rerio embryo [25] | – | – | – | – | – | – | – | – | – | – | – | – | – | – | 18.8 | – | – | – | – | – | – | – | – | – | – | – | –
Danio rerio embryo [26] | – | – | – | – | 17.8 | – | – | – | – | – | – | – | – | – | – | – | – | – | – | – | – | – | – | – | – | – | –
Danio rerio embryo [27] | – | – | – | – | – | – | – | – | – | – | – | – | – | – | – | – | 33.9 | – | – | – | – | – | – | – | – | – | –
Danio rerio embryo [28] | – | – | – | – | – | – | – | 33 | – | – | – | – | – | – | – | – | – | – | – | – | – | – | – | – | – | – | –
